Reference: PMC7029660, “Functional Division Between the RecA1 and RecA2 Proteins in Myxococcus xanthus” (Frontiers in Microbiology, 2020)

Molecular target: T1, RecA1 (Myxococcus xanthus, UniProt Q1DCC5)
T1 construct: gene recA; full-length gene in pET15b, expressed in E. coli BL21(DE3), Ni-NTA purified
T1 sequence (Q1DCC5 1-342): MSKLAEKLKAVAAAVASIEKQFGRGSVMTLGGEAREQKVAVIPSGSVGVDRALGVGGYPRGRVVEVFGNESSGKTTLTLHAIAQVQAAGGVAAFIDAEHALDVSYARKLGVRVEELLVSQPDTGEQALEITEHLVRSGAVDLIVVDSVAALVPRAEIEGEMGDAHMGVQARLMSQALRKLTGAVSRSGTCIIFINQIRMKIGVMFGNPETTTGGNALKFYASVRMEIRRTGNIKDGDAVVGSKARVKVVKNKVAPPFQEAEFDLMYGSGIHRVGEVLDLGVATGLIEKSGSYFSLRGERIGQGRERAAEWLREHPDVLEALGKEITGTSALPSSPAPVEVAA
Assay: ATPase assay, released inorganic phosphate (kit)
Format: biochemical
Settings: 3 mM ATP, 5 mM MgCl2, 1 mM CaCl2, pH 7.4, 32 °C; with or without ssDNA or dsDNA

Compound: Nc1ncnc2c1ncn2[C@@H]1O[C@H](COP(=O)(O)OP(=O)(O)OP(=O)(O)O)[C@@H](O)[C@H]1O [ATP]
- ATPase assay, released inorganic phosphate (kit): RecA1 and RecA2 both exhibited low ATPase activities
